“And” between values parts separate entries of the source, which are not always exact repeats. Equal values may be shown once. Read-outs that look alike come from different tables or passages of the source.
Experiments:
[1] = molecular target: T1, HIV-1 RT-associated RNase H (Human immunodeficiency virus type 1 group M subtype B, UniProt P03366); experiment: HIV-1 RT-associated RNase H inhibition assay; assay type: biochemical; parameters: 50 nM of HIV-1 RT; conditions: for IC50: 50 nM HIV-1 RT, 15 min at 37 °C, triplicate
Description: HIV-1 RT-associated RNase H inhibition assays were carried out in a 384 multiwell format, in 30 µL reaction volume containing 50 mM Tris–HCl buffer pH 7.8, 6 mM MgCl2, 1 mM dithiothreitol (DTT), 80 mM KCl, 0.25 µM hybrid RNA/DNA 5’-[…]-Fluorescin-3’ 5’-Dabcyl-[…]-3’ increasing concentrations of inhibitor, whose dilutions were made in DMSO, and 50 nM of HIV-1 RT. The reaction mixture was incubated for 15 min at 37 °C and products were measured with a multilabel counter plate reader VictorNivo5 (PerkinElmer, Waltham, MA, USA) equipped with filters for 490/528 nm. IC50, the concentration able to inhibit 50% of enzymatic activity, was calculated by non-linear regression curve fit using Prisme v9.0. All experiments were conducted in triplicate.

[2] = system: SARS-CoV-2; experiment: microbe, parasite or virus in culture; assay type: cell-based; conditions: for EC50: read-out: EC50 for viral replication inhibition; for Inhibitory activity against SARS-CoV-2 replication (in words): with CP-100356
[3] = in vitro; conditions: African green monkey
[4] = system: HIV-1; assay type: cell-based; conditions: for Antiviral effect, reduction of GFP fluorescence expression (in words): MT4 cells, FACS
[5] = system: HIV-1; experiment: HIV-1 infectivity in HelaP4 cells (CPRG assay); assay type: cell-based; conditions: for Reduction of HIV-1 infectivity: at highest non-toxic concentration, 48 h
[6] = system: HelaP4 cells; experiment: Toxicity to HelaP4 cells (MTT assay); assay type: cell-based
Description: HelaP4 cells (10^4 cells/well) were infected with viruses (7.5 ng p24) in the presence of increasing concentration of compounds. Cells were incubated for 48 h before analysis. β-Galactosidase is under the control of the HIV-1 LTR. Infectivity is correlated with the number of infected cells. Cells were lysed for 10 min at 37 °C using 80 µL of lysis buffer (Na2HPO4 60 mM, NaH2PO4 60 mM, KCl 10 mM, MgSO4 10 mM, EDTA 25 mM, and NP-40 0.125%). After lysis, 170 µL of CPRG buffer (phosphate buffer 100 mM, pH 7.4, MgCl2 100 mM, and CPRG 20 mM) was added to each well. The plates were incubated at 37 °C until the color changed to dark red. Finally, a plate reader was used to read the absorbance at 572 nm. The MTT assay varies based on NAD(P)H-dependent cellular oxidoreductase enzymes of viable cells reducing the yellow tetrazolium salt MTT (3-(4,5-dimethylthiazol2-yl)-2,5-diphenyltetrazolium bromide). Spectrophotometric measurement can be used to quantify the insoluble purple formazan product that is produced by this reaction. An amount of 10 µL of MTT reagent (7.5 mg/mL in PBS, pH 7.4) was added to each well of the microtiter plate before incubating at 37 °C for 2 h. After 2 h of incubation, 100 µL of MTT lysis buffer (SDS 10%, HCl 0.01 N, pH 4.7) was added and the resulting optical density (OD) readings were measured at 572 nm.

[7] = system: HIV-1 viral DNA; experiment: qPCR of total HIV-1 viral DNA in infected MT4 cells; assay type: cell-based; conditions: 30 µM
Description: At the same time point, cells were harvested and washed with PBS before centrifugation to form pellets. DNA extraction was carried out using the QIAamp DNA Blood Mini Kit (Qiagen, Hilden, Germany). The procedure involved lysing the cells with AL buffer and Proteinase K to release the DNA. The lysate was then mixed with ethanol to facilitate DNA binding to a silica-based membrane in a spin column. The bound DNA was washed with buffers AW1 and AW2 to remove contaminants, and, finally, the DNA was eluted in 100 μL of water. DNA quantification was performed using quantitative polymerase chain reaction (qPCR) with the Roche LightCycler instrument. Accordingly, DNA quantification was conducted using real-time PCR (qPCR) on the same apparatus. This analysis utilized nucleic acid amounts corresponding to approximately 200,000 cells. The sequences of primers and probes employed for qPCR, aimed at absolute quantification of total HIV-1 viral DNA, have been previously described. The copy numbers of total HIV-1 DNA were ascertained from calibration curves derived from amplifying known quantities of cloned DNA with matching sequences.

[8] = system: MT4 cells; experiment: Toxicity ZombieAqua test in MT4 cells; assay type: cell-based; conditions: 30 µM, Zombie Aqua
Description: MT4 cells (10^5 cells/well) were infected with viruses (100 ng/well) in the presence of increasing concentration of lawsone compounds and the positive control efavirenz (Sigma-Aldrich, St. Louis, MO, USA). After 48 h, cells from each well were washed with PBS and centrifuged (1500 rpm, 5 min). Then, cells were incubated with Zombie Aqua™ (Biolegend, San Diego, CA, USA) dye solution for 15 min in the dark at room temperature to stain dead cells. After that, the cell pellets were washed one more time with PBS before analysis by flow cytometer. Acquisition was performed on a FACS Celesta (BD Biosciences) and analysis was performed using FlowJo v10 software. Cells were first gated on the FSC-H and FSC-A parameters to exclude doublet cells. Then, living cells were selected according to the Zombie Acqua staining (dead cells are stained whereas living cells are not). Finally, the percentage of HIV-1infected cells was measured by analyzing the percentage of GFP+ cells among living cells.

[9] = system: VEROE6-EGFP cells; conditions: read-out: CC50 cytotoxic concentration, in the presence of 2 µM CP-100356
[10] = molecular target: T1, HIV-1 RT-associated RNase H; conditions: negative control; ref Min et al. [33]; cited from earlier work
[11] = read-out: IC50, HIV-1 RT-associated RNase H activity
[12] = Severe acute respiratory syndrome coronavirus 2, VEROE6-EGFP cells, in the presence of 2 µM CP-100356
[13] = IC50, HIV-1 RT-associated RNase H activity

CCCCCCCNC(C1=C(O)C(=O)c2ccccc2C1=O)c1ccccn1 (stereo not drawn) [Compound 1a]
IC50 [1, 11]: 31.2 ± 6.5 µM

CCCCCCCCCCCCNC(C1=C(O)C(=O)c2ccccc2C1=O)c1ccccn1 (stereo not drawn) [Compound 1b]
IC50 [1, 11]: 4 to 4.4 µM and 4.4 µM

CCCCCCCCCCCCCCNC(C1=C(O)C(=O)c2ccccc2C1=O)c1ccccn1 (stereo not drawn) [Compound 1c]
IC50 [1, 11]: 4 to 4.4 µM and 4 µM

CCCCCCCCCCCCCCCCNC(C1=C(O)C(=O)c2ccccc2C1=O)c1ccccn1 (stereo not drawn) [Compound 1d]
IC50 [1, 11]: 10.7 ± 4.1 µM

O=C1C(O)=C(C(NCc2ccccc2)c2ccccn2)C(=O)c2ccccc21 (stereo not drawn) [Compound 1e]
SI, selectivity index CC50/EC50 [2]: 3.15 | EC50 [2, 12]: 11.2 ± 2.1 µM | Inhibitory activity against SARS-CoV-2 replication (in words) ([2]; VEROE6-EGFP cells): moderate inhibitory activity | IC50 [1, 13]: 2.8 to 3.1 µM and 3.1 µM | CC50 [3]: 35.3 ± 1.3 µM

O=C1C(O)=C(C(NCc2ccc(F)c(F)c2)c2ccccn2)C(=O)c2ccccc21 (stereo not drawn) [Compound 1f]
IC50 [1, 11]: 17.4 ± 4.1 µM

CCCCCCCCCCCCNC(C1=C(O)C(=O)c2ccccc2C1=O)c1cccc(Br)n1 (stereo not drawn) [Compound 1g, 3-[(Dodecylamino)(6-bromo-2-pyridyl)methyl]-2-hydroxy-1,4-naphthoquinone]
IC50 [1, 11]: > 100 µM

CCCCCCCCCCCCCCNC(C1=C(O)C(=O)c2ccccc2C1=O)c1cccc(Br)n1 (stereo not drawn) [Compound 1h, 3-[(Tetradecylamino)(6-bromo-2-pyridyl)methyl]-2-hydroxy-1,4-naphthoquinone]
IC50 [1, 11]: > 100 µM

CCCCCCCCCCCCCCCCNC(C1=C(O)C(=O)c2ccccc2C1=O)c1cccc(Br)n1 (stereo not drawn) [Compound 1i, 3-[(Hexadecylamino)(6-bromo-2-pyridyl)methyl]-2-hydroxy-1,4-naphthoquinone]
IC50 [1, 11]: 78.6 ± 11.5 µM

O=C1C(O)=C(C(NCc2ccccc2)c2cccc(Br)n2)C(=O)c2ccccc21 (stereo not drawn) [Compound 1j, 3-[(Benzylamino)(6-bromo-2-pyridyl)methyl]-2-hydroxy-1,4-naphthoquinone]
IC50 [1, 11]: > 100 µM

CCCCCCCCCCCCCCNC(C1=C(O)C(=O)c2ccccc2C1=O)c1ccccc1 (stereo not drawn) [Compound 2a]
IC50 [1, 11]: 21.5 ± 0.9 µM

CCCCCCCCCCCCCCNC(C1=C(O)C(=O)c2ccccc2C1=O)c1ccccc1F (stereo not drawn) [Compound 2b, 3-[(Tetradecylamino)(2-fluorophenyl)methyl]-2-hydroxy-1,4-naphthoquinone]
Antiviral effect, reduction of GFP fluorescence expression (in words) [4]: no or weak antiviral effects | IC50 [1, 11]: 15 ± 5.1 µM | Reduction of HIV-1 infectivity [5]: 75%

CCCCCCCCCCCCCCNC(C1=C(O)C(=O)c2ccccc2C1=O)c1ccccc1Cl (stereo not drawn) [Compound 2c, 3-[(Tetradecylamino)(2-chlorophenyl)methyl]-2-hydroxy-1,4-naphthoquinone]
Antiviral effect, reduction of GFP fluorescence expression (in words) [4]: no or weak antiviral effects | IC50 [1, 11]: 7.3 ± 4.7 µM | Reduction of HIV-1 infectivity [5]: 46%

CCCCCCCCCCCCNC(C1=C(O)C(=O)c2ccccc2C1=O)c1ccccc1O (stereo not drawn) [Compound 2d]
IC50 [1, 13]: 17.6 ± 3.8 µM | Cytotoxicity (in words) [6]: displayed cytotoxicity

CCCCCCCCCCCCCCNC(C1=C(O)C(=O)c2ccccc2C1=O)c1ccccc1O (stereo not drawn) [Compound 2e, 3-[(Tetradecylamino)(2-hydroxyphenyl)methyl]-2-hydroxy-1,4-naphthoquinone]
IC50 [1, 11]: 8.5 ± 1.6 µM | Antiviral activity against HIV-1 (in words) [5]: no antiviral activity

CCCCCCCCCCCCCCCCNC(C1=C(O)C(=O)c2ccccc2C1=O)c1ccccc1O (stereo not drawn) [Compound 2f]
IC50 [1, 13]: 7 ± 0.9 µM | Cytotoxicity (in words) [6]: displayed cytotoxicity

O=C1C(O)=C(C(NCc2ccccc2)c2ccccc2O)C(=O)c2ccccc21 (stereo not drawn) [Compound 2g]
HIV-1 RNase H inhibitory activity (in words) [1]: inactive | IC50 [1, 11]: > 100 µM

O=C1C(O)=C(C(Nc2ccccn2)c2ccccc2O)C(=O)c2ccccc21 (stereo not drawn) [Compound 2h]
HIV-1 RNase H inhibitory activity (in words) [1]: moderate activity | IC50 [1, 11]: 20.8 ± 0.2 µM

CCCCCCCCCCCCNC(C1=C(O)C(=O)c2ccccc2C1=O)c1cc(Cl)cc(Cl)c1O (stereo not drawn) [Compound 2i]
Antiviral effect, reduction of GFP fluorescence expression (in words) [4]: no or weak antiviral effects | IC50 [1, 11]: 4.7 ± 1.6 µM | Reduction of HIV-1 infectivity [5]: 65%

CCCCCCCCCCCCCCNC(C1=C(O)C(=O)c2ccccc2C1=O)c1cc(Cl)cc(Cl)c1O (stereo not drawn) [Compound 2j, 3-[(Tetradecylamino)(3,5-dichloro-2-hydroxyphenyl)methyl]-2-hydroxy-1,4-naphthoquinone]
IC50 [1, 11]: 43.7 ± 3.5 µM

CCCCCCCCCCCCCCCCNC(C1=C(O)C(=O)c2ccccc2C1=O)c1cc(Cl)cc(Cl)c1O (stereo not drawn) [Compound 2k]
Reduction of percentage of GFP-positive cells [4]: half | Reduction of viral DNA levels [7]: over 50% | EC50 [2, 12]: > 41.2 µM | Inhibitory activity against SARS-CoV-2 replication (in words) ([2]; VEROE6-EGFP cells): inactive | Toxicity (in words) [8]: without exhibiting any toxicity | IC50 [1, 13]: 2.8 to 3.1 µM and 2.8 µM | CC50 [3]: 41.2 ± 1.3 µM

O=C1C(O)=C(C(NCc2ccccc2)c2cc(Cl)cc(Cl)c2O)C(=O)c2ccccc21 (stereo not drawn) [Compound 2l, 3-[(Benzylamino)(3,5-dichloro-2-hydroxyphenyl)methyl]-2-hydroxy-1,4-naphthoquinone]
Antiviral effect, reduction of GFP fluorescence expression (in words) [4]: no or weak antiviral effects | HIV-1 RNase H inhibitory activity (in words) [1]: moderate activities | IC50 [1, 11]: 12.7 ± 3.4 µM | Reduction of HIV-1 infectivity [5]: 48%

CCCCCCCCCCCCNC(C1=C(O)C(=O)c2ccccc2C1=O)c1cc(Br)cc(Br)c1O (stereo not drawn) [Compound 2m]
IC50 [1, 11]: 7.1 ± 1.1 µM | Antiviral activity against HIV-1 (in words) [5]: no antiviral activity

CCCCCCCCCCCCCCNC(C1=C(O)C(=O)c2ccccc2C1=O)c1cc(Br)cc(Br)c1O (stereo not drawn) [Compound 2n, 3-[(Tetradecylamino)(3,5-dibromo-2-hydroxyphenyl)methyl]-2-hydroxy-1,4-naphthoquinone]
IC50 [1, 11]: 105 ± 10.6 µM

CCCCCCCCCCCCCCCCNC(C1=C(O)C(=O)c2ccccc2C1=O)c1cc(Br)cc(Br)c1O (stereo not drawn) [Compound 2o]
IC50 [1, 11]: 32.5 ± 10.5 µM

O=C1C(O)=C(C(NCc2ccccc2)c2cc(Br)cc(Br)c2O)C(=O)c2ccccc21 (stereo not drawn) [Compound 2p, 3-[(Benzylamino)(3,5-dibromo-2-hydroxyphenyl)methyl]-2-hydroxy-1,4-naphthoquinone]
Antiviral effect, reduction of GFP fluorescence expression (in words) [4]: no or weak antiviral effects | HIV-1 RNase H inhibitory activity (in words) [1]: moderate activities | IC50 [1, 11]: 19.6 ± 3.4 µM | Reduction of HIV-1 infectivity [5]: 70%

CC(C)C[C@H](NC(=O)OCc1ccccc1)C(=O)N[C@@H](CC1CCNC1=O)C(O)S(=O)(=O)O (stereo partly drawn) [GC-376, reference compound]
EC50 [2]: 0.84 ± 0.08 µM | CC50 [9]: > 100 µM

O=C1C=C(O)C(=O)c2ccccc21 [Lawsone, 2-Hydroxy-1,4-naphthoquinone]
IC50, HIV-1 RT-associated RNase H activity [10]: >100 µM
